The values that follow come from PMC10353187, “Discovery of a new potent oxindole multi-kinase inhibitor among a series of designed 3-alkenyl-oxindoles with ancillary carbonic anhydrase inhibitory activity as antiproliferative agents” (BMC Chemistry, 2023).

Each structure is given as a SMILES string.

One test concerns SR. Description: NCI-60 single-dose antiproliferative assay (SRB). Format: cell-based. Conditions: Homo sapiens, 10 μM single dose, Leukemia, read-out: Cell Growth inhibition Percent. An outline of the steps: (§1)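 Plating at 5000–40,000 cells/well by doubling time; 24 h preincubation; a time-zero plate fixed at drug addition. Compound added at 10 µM final, incubated 48 h. Protein stained with SRB, measured at 515 nm, and GI% derived from Tz, C and Ti.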

The subject of another test is HCT-116. In words: NCI-60 single-dose antiproliferative assay (SRB). In kind it is cell-based. Conditions: Homo sapiens; 10 μM single dose; HCT-116, Colon cancer; read-out: Cell Growth inhibition Percent. An outline of the steps:
as §1

The next test has as its system K-562. In words: NCI-60 single-dose antiproliferative assay (SRB). Conditions: Homo sapiens, K562; 10 μM single dose; K-562, Leukemia; read-out: Cell Growth inhibition Percent. Format: cell-based. The procedure, abridged: as §1
The test system of another test is MCF7. In words: NCI-60 single-dose antiproliferative assay (SRB). Format: cell-based. To be noted: Homo sapiens; 10 μM single dose; MCF7, Breast cancer; read-out: Cell Growth inhibition Percent. The procedure, abridged:
as §1

In the next test the test system is SN12C. In words: NCI-60 single-dose antiproliferative assay (SRB). Format: cell-based. To be noted: Homo sapiens, 10 μM single dose, Renal cancer, read-out: Cell Growth inhibition Percent. An outline of the steps: as §1
In another test the test system is EKVX. In words: NCI-60 single-dose antiproliferative assay (SRB). To be noted: Homo sapiens, 10 μM single dose, Non-small cell lung cancer, read-out: Cell Growth inhibition Percent. In kind it is cell-based. An outline of the steps: as §1
The next test has as its system HOP-62. Description: NCI-60 single-dose antiproliferative assay (SRB). Format: cell-based. Conditions: Homo sapiens; 10 μM single dose; HOP-62, Non-small cell lung cancer; read-out: Cell Growth inhibition Percent. An outline of the steps: as §1
The subject of another test is MDA-MB-435. Description: NCI-60 single-dose antiproliferative assay (SRB). Format: cell-based. To be noted: Homo sapiens; 10 μM single dose; MDA-MB-435, Melanoma; read-out: Cell Growth inhibition Percent. An outline of the steps: as §1
Another test concerns NCI-H522. Description: NCI-60 single-dose antiproliferative assay (SRB). Format: cell-based. To be noted: Homo sapiens; 10 μM single dose; NCI-H522, Non-small cell lung cancer; read-out: Cell Growth inhibition Percent. An outline of the steps: as §1
Another test deals with hCA II (Homo sapiens, UniProt P00918). In words: Stopped flow CO2 hydrase assay.
Another test addresses hCA IX (Homo sapiens, UniProt Q16790). Description: Stopped flow CO2 hydrase assay. Conditions: for Selectivity ratio I/IX: Ki hCA I / Ki hCA IX; for Selectivity ratio II/IX: Ki hCA II / Ki hCA IX.
The subject of another test is UO-31. Description: NCI-60 single-dose antiproliferative assay (SRB). Format: cell-based, human. Conditions: Homo sapiens, UO-31, 10 μM single dose; UO-31, Renal cancer; read-out: Cell Growth inhibition Percent. On the procedure: From the newly synthesized compounds, eleven compounds (4c, 4d, 5, 9a, 9b, 11a, 11b, 13b, 13c, 15b, and 15c) were selected by the National Cancer Institute (NCI) Developmental Therapeutics Program (DTP), Bethesda, Maryland, USA for the in vitro anti-proliferative activity evaluation. The selected compounds were examined at 10 μM dose against the NCI 60-cell line panel. This panel consists of nine cell line groups of leukemia, non-small cell lung carcinoma (NSCLC), melanoma, colon, CNS, ovarian, renal, prostate, and breast cancers. The results are reported as mean-graph of the percent growth relative to control and presented as percentage growth inhibition (GI%), furthermore, mean GI% of each compound over all panel cell lines was calculated (Table 1; Additional file 1; S3: In vitro biological activity).
From the newly synthesized compounds, eleven compounds were selected by the National Cancer Institute (NCI) Developmental Therapeutics Program (DTP), Bethesda, Maryland, USA for the in vitro anti-proliferative activity evaluation (For further details see supplementary materials).
NCI In-vitro Cancer Screening is a two-phase procedure that starts with the assessment of all compounds against the sixty NCI cell line panel depicting leukemia, NSCLC, CNS cancer, melanoma, prostate cancer, breast cancer, renal cancer, colon cancer and ovarian cancer cell lines at a single point of 10μM. The output from the single-dose screen is reportable as a mean graph.
The human tumor cell lines of the cancer screening panel were grown in RPMI 1640 medium containing 5% fetal bovine serum and 2 mM L-glutamine. For a typical screening experiment, cells were inoculated into 96 well microtiter plates in […] at plating densities ranging from 5000 to 40,000 cells/well depending on the doubling time of individual cell lines. After cell inoculation, the microtiter plates were incubated at 37 °C, 5% CO2, 95% air and 100% relative humidity for 24 h prior to addition of experimental drugs. After 24 h, two plates of each cell line were fixed in situ with trichloroacetic acid (TCA), to represent a measurement of the cell population for each cell line at the time of drug addition (Tz). Experimental drugs were solubilized in dimethyl sulfoxide at 400-fold the desired final maximum test concentration and stored frozen prior to use. At the time of drug addition, an aliquot of frozen concentrate was thawed and diluted to twice the desired final maximum test concentration with complete medium containing 50 µg/ml gentamicin. Aliquot of 100 µl of the drug dilution was added to the appropriate microtiter wells already containing 100 µl of medium, resulting in the required final drug concentration (10 µM). Triplicate wells were prepared for each individual dose. Following drug addition, the plates were incubated for an additional 48 h at 37 °C, 5% CO2, 95% air, and 100% relative humidity. For adherent cells, the assay was terminated by the addition of cold TCA. Cells were fixed in situ by the gentle addition of 50 µl of cold 50% (w/v) TCA (final concentration, 10% TCA) and incubated for 60 min at 4 °C. The supernatant was discarded, and the plates were washed five times with tap water and air dried. Sulforhodamine B (SRB) solution (100 µl) at 0.4% (w/v) in 1% acetic acid was added to each well, and plates were incubated for 10 min at room temperature. After staining, unbound dye was removed by washing five times with 1% acetic acid and the plates were air dried. Bound stain was subsequently solubilized with 10 mM trizma base, and the absorbance was read on an automated plate reader at a wavelength of 515 nm. For suspension cells, the methodology was the same except that the assay was terminated by fixing settled cells at the bottom of the wells by gently adding 50 µl of 80% TCA (final concentration, 16% TCA). […]

For a further test, the system named is MALME-3 M. In words: NCI-60 single-dose antiproliferative assay (SRB). Conditions: Homo sapiens, 10 μM single dose, Melanoma, read-out: Cell Growth inhibition Percent. In kind it is cell-based. The procedure, abridged:
as §1

The test system of the next test is UACC-62. In words: NCI-60 single-dose antiproliferative assay (SRB). In kind it is cell-based. To be noted: Homo sapiens; 10 μM single dose; UACC-62, Melanoma; read-out: Cell Growth inhibition Percent. The procedure, abridged:
as §1

The next test concerns SF-268. In words: NCI-60 single-dose antiproliferative assay (SRB). Format: cell-based. To be noted: Homo sapiens; 10 μM single dose; SF-268, CNS cancer; read-out: Cell Growth inhibition Percent. An outline of the steps:
as §1

The test system of the next test is U251. Description: NCI-60 single-dose antiproliferative assay (SRB). In kind it is cell-based. To be noted: Homo sapiens, U-251; 10 μM single dose; U251, CNS cancer; read-out: Cell Growth inhibition Percent. An outline of the steps: as §1
The next test relates to SW-620. Description: NCI-60 single-dose antiproliferative assay (SRB). In kind it is cell-based. Conditions: Homo sapiens; 10 μM single dose; SW-620, Colon cancer; read-out: Cell Growth inhibition Percent. An outline of the steps:
as §1

One may read the inhibition as the drop in the measured response relative to a control, in per cent. In general, Ki refers to the equilibrium dissociation constant of an inhibitor or competing ligand from its target. The low end stands for tighter binding, the high end for weaker binding.

In the case of `O=C1Nc2ccccc2C1=CNc1ccc(C(=O)C=CNc2nccs2)cc1` [Compound 13c, 3-{[(4-{3-[Thiazol-2-ylamino]acryloyl}phenyl)amino]methylene}indolin-2-one], the inhibition at 10 µM in the test on SR was 6%; in the test with HCT-116, 21.9%; with K-562 it was 24.8%; in the test with MCF7, 28.1%; in the test on SN12C, 11.6%; with EKVX, 16.8%. In addition, the inhibition at 10 µM was 12% in the test with HOP-62, 1.15% in the test with MDA-MB-435, 2.31% in the test with NCI-H522 and 16.2% with UO-31. Besides, the Ki at hCA II and on hCA IX was more than 10 µM throughout.

In the case of `O=C1Nc2ccccc2C1=CNc1ccc(C(=O)Nc2ccc(S(=O)(=O)Nc3ncccn3)cc2)cc1` [Compound 9b, 4-{[(2-Oxoindolin-3-ylidene)methyl]amino}-N-{4-[N-(pyrimidin-2-yl)sulfamoyl]phenyl}benzamide], the inhibition at 10 µM in the test on MALME-3 M came to 2.09%; in the test on SR it was 9.02%; with K-562, 3.5%; in the test with MCF7, 4.97%; in the test with SN12C it was 20.5%; in the test on EKVX it was 38.5%. Moreover, the inhibition at 10 µM in the test on HOP-62 worked out at 27.7%; with UACC-62, 7.84%; with SF-268, 3.48%; with UO-31 it was 43.7%. Moreover, the Ki at hCA II and at hCA IX was more than 10 µM throughout.

Turning to `NS(=O)(=O)N/C=C1/C(=O)Nc2ccccc21` [Compound 5, 3-(sulfamidmethylene)indoline-2-one], the inhibition at 10 µM was found to be 6.19% with MCF7; 2.06% in the test with U251; 18.8% in the test with EKVX; 9.49% in the test with HOP-62; 5.36% in the test with NCI-H522; 4.35% in the test on UACC-62. Besides, the inhibition at 10 µM in the test with SF-268 is 2.04%; with UO-31 it was 34.6%. In addition, the Ki on hCA II is 0.913 µM; on hCA IX it was 0.208 µM. Further, the “Selectivity ratio I/IX” value at hCA IX amounted to 30.48. Moreover, the “Selectivity ratio II/IX” value at hCA IX came out at 4.39.

For `NS(=O)(=O)c1ccc(NCc2ccc(NC=C3C(=O)Nc4ccccc43)cc2)cc1` [Compound 11a, 4-{[4-({[2-Oxoindolin-3-ylidene]methyl}amino)benzyl]amino}benzenesulfonamide], the inhibition at 10 µM in the test on MALME-3 M came out at 3.16%; in the test on SR it was 18.7%; in the test on K-562 it was 0.06%; in the test with MCF7 it was 23%; in the test with SN12C, 22.9%; with EKVX it was 47.4%. The inhibition at 10 µM came to 30.5% in the test on HOP-62, 2.04% in the test on MDA-MB-435, 11.3% with SF-268 and 44% in the test with UO-31. Besides, the Ki at hCA II amounted to 0.746 µM; at hCA IX it was 0.217 µM. Further, the “Selectivity ratio I/IX” value at hCA IX is on record as 1.48. The “Selectivity ratio II/IX” value on hCA IX is 3.43.

For `O=C1Nc2ccccc2C1=CNc1ccc(C(=O)O)cc1` [Compound 4c, 4-{[(2-Oxoindolin-3-ylidene)methyl]amino}benzoic acid], the inhibition at 10 µM in the test on MALME-3 M was found to be 0.23%; in the test with SR it was 4.7%; in the test with MCF7, 1.59%; in the test on SN12C, 24.8%; with SW-620, 4.95%; in the test on EKVX, 24.3%. Further, the inhibition at 10 µM is 32% in the test with HOP-62, 16.4% in the test on SF-268 and 49.7% in the test with UO-31. Further, the results for the Ki on hCA II and on hCA IX were 8.67 µM and more than 10 µM, respectively.
